Marks after values point to notes of the source that are not given here.
What was measured:
[1] = test system: Ehrlich ascites tumor cells (EATC); test: Antitumor activity in mice inoculated i.p. with Ehrlich ascites tumor cells; type: in vivo; details: for 50-day cure (mice) / Solid Tumors at 50 days (mice): 8 mice; for Acute, initial toxicity observation: C18 (stearoyl) homolog, 0.15 mmol/kg on day 1; for Normal at 60 days / Solid tumors at 60 days: L-threo isomer; for Weight Change after 10 days: mouse, in vivo
Procedure: Male mice of the ICR (Swiss Hsd) strain from Harlan--Sprague Dawley (Indianapolis, Ind.) were injected intraperitoneal with saline containing 2×10^6 Ehrlich ascites tumor cells (EATC) on day 0. […] Treatment began 24 hours later with intraperitoneal injections of saline or inhibitor, either as the acetate salt or as the hydrochloride salt. The inhibitor was dissolved in 40° C. saline and injected at 10 μl/g body weight. In the case of drugs that were difficult to dissolve, e.g. the hydrochlorides, a non-ionic, low toxicity detergent was included to emulsify the drug, making it suitable for injection. Two cages of mice were assigned to each control or experimental group and fed standard lab chow. In almost all cases, the mice were injected daily for a total of 10 doses.
The 1-tailed Student t-test for unpaired samples was used for statistical analysis.
The experimental procedure set forth above was again followed with homologs of PDMP made from fatty acids of 10 to 18 carbon atom length. The compounds were not resolved into D- and L-forms but the threo stereomers were used as the hydrochlorides. All samples were emulsified in Myrj 52 (15 mg/kg).

[2] = target: T1, glucosyltransferase (EATC enzyme) (Mus musculus, UniProt O88693); test: Glucosyltransferase assay, microsomes from EATC; type: biochemical
T1 construct: Microsomes from EATC (0.50 mg protein) required 20 μM PDMP to reduce the glucosyltransferase activity in half; endogenous in cells; host or cells: Ehrlich ascites tumor cells (EATC), microsomes
T1 sequence (O88693 1-394): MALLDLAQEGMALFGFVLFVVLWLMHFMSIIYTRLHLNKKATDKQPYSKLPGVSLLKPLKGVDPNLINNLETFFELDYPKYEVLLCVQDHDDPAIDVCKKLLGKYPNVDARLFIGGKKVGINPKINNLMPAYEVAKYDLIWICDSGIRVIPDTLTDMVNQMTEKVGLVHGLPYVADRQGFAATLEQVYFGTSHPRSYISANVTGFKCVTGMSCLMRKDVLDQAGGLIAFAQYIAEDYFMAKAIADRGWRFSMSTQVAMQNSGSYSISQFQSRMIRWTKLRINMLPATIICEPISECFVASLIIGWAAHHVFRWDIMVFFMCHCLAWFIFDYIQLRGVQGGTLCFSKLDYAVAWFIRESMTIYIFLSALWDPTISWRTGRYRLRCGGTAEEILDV
Procedure: Evidence that D-threo-PDMP acts to inhibit GlcCer biosynthesis was provided as follows from assay of glucosyltransferase. Microsomes as source of enzyme were prepared by highspeed centrifugation and stored at -70° C. before use. The incubations were at 37° C. for 30 minutes with microsomes, ATP, liposomal octanoyl sphingosine, UDP-[^3 H]glu, Mg^2+, and dithioerythritol. Microsomes from EATC (0.50 mg protein) required 20 μM PDMP to reduce the glucosyltransferase activity in half. The microsomes from normal liver (72 μg protein) required 5 μM D-threo-PDMP. While the EATC enzyme seems to be less sensitive to the inhibitor, the intraperitoneal concentration of inhibitor is initially very high.

[3] = test system: Ehrlich ascites cells; test: Growth of Ehrlich ascites cells in vivo (volume of packed cells); details: for Volume of packed cells / Volume of packed cells, % of controls: treatment begun 3 days after EATC inoculation, 5 injections, killed 1 day later, 100 mg/kg
Procedure: A suspension of GlcCer was injected into one group of 10 mice inoculated 1 day earlier with EATC as before. Injectable suspensions of GlcCer and galactosylceramide (GalCer) were prepared by mechanical grinding in saline (10 mg/ml) and injected at a dosage of 100 mg/kg. In one experiment, the mice were killed 1 day after the last of eight daily injections and the ascites cells were flushed out of the abdomen with buffered saline and washed.
Treatments were begun 3 days after EATC inoculation. Only 5 injections were given and the mice were killed 1 day later.

[4] = test system: Ehrlich ascites cells; details: mice bearing Ehrlich ascites carcinoma cells, injection of glucosylceramide (background); cited from earlier work
[5] = DL-threo hydrochloride in Myrj 52 emulsion, 0.3 mmol/kg, ten daily injections
[6] = DL-threo hydrochloride in Myrj 52 emulsion, C16 0.15 mmol/kg, six injections
[7] = DL-threo hydrochloride in Myrj 52 emulsion, C18 0.15 mmol/kg on day 1 and 0.075 mmol/kg the remaining 9 days

For `CCCCCCCCCC(=O)N[C@H](CN1CCOCC1)[C@H](O)c1ccccc1` (relative stereo) [compound 10, 1-Phenyl-2-Decanoylamino-3-Morpholino-1-Propanol], the “50-day cure (mice)” value [1, 5] was 5, the “Solid Tumors at 50 days (mice)” value [1, 5] was 1 and the “Mice that developed small solid tumors that were later resorbed” value ([1]; decanoyl group, 0.3 mmol/kg in Myrj emulsion) was “two”. The Long-term cure rate ([1]; dosage of 128 mg/kg, Myrj emulsion) was 50%.
With `CCCCCCCCCCCC(=O)N[C@H](CN1CCOCC1)[C@H](O)c1ccccc1` (relative stereo) [compound 12] the “Body Weight Increase at the 10-day point” value [1, 5] was -0.1 g, the “50-day cure (mice)” value [1, 5] was 2 and the “Solid Tumors at 50 days (mice)” value [1, 5] was 2.
In the case of `CCCCCCCCCCCCCC(=O)N[C@H](CN1CCOCC1)[C@H](O)c1ccccc1` (relative stereo) [compound 14], the “Body Weight Increase at the 10-day point” value [1, 5] is reported as 0.1 g, the “50-day cure (mice)” value [1, 5] is reported as 1 and the “Solid Tumors at 50 days (mice)” value [1, 5] is reported as 4.
For `CCCCCCCCCCCCCCCC(=O)N[C@H](CN1CCOCC1)[C@H](O)c1ccccc1` (relative stereo) [compound 16], the “Body Weight Increase at the 10-day point” value [1, 6] was -1.1 g, the “Survival after 10 days” value [1, 6] was 5/8 and the “50-day cure (mice)” value [1, 6] was 3. The “Solid Tumors at 50 days (mice)” value [1, 6] was 1 and the Toxicity observation ([1]; palmitoyl homolog, daily injections in Myrj 52) was “too toxic to be used more than six times”.
With `CCCCCCCCCCCCCCCCCC(=O)N[C@H](CN1CCOCC1)[C@H](O)c1ccccc1` (relative stereo) [compound 18] the “Acute, initial toxicity observation” value [1] was “high initial weight loss”, the “Acute, initial toxicity observation” value ([1]; listed as C18 homolog) was “absence of an acute, initial toxicity reaction” and the “Body Weight Increase at the 10-day point” value [1, 7] was 2.5 g. The “50-day cure (mice)” value [1, 7] was 6 and the “Solid Tumors at 50 days (mice)” value [1, 7] was 0.
For `CCCCCCCCCC(=O)N[C@@H](CN1CCOCC1)[C@@H](O)c1ccccc1` [L-threo-PDMP, 1-Phenyl-2-Decanoylamino-3-Morpholino-1-Propanol], the “Inhibition of ceramide glucosyltransferase” value ([2]; general statement) was “ineffective”, the “Inhibition of the EATC enzyme” value ([2]; microsomes from EATC) was “did not inhibit” and the “Effectiveness in curing the tumors compared with the D-enantiomer” value ([1]; 60-day observation period, 75-150 mg/kg) was “more effective in curing the tumors than the D-enantiomer”. The “Losses of animals during the initial 10 days of treatment” value ([1]; 75-150 mg/kg) was “no losses of animals”, the “Ascites fluid in treated mice” value ([1]; 75-150 mg/kg, 10 days) was “At no time was ascites fluid visible” and the “Normal at 60 days” value ([1]; 75 mg/kg, 10 days) was 4 # of mice. The “Solid tumors at 60 days” value ([1]; 75 mg/kg, 10 days) was 2 # of mice, the “Normal at 60 days” value ([1]; 100 mg/kg, 10 days) was 4 # of mice and the “Solid tumors at 60 days” value ([1]; 100 mg/kg, 10 days) was 3 # of mice. The “Normal at 60 days” value ([1]; 125 mg/kg, 10 days) was 2 # of mice, the “Solid tumors at 60 days” value ([1]; 125 mg/kg, 10 days) was 3 # of mice and the “Normal at 60 days” value ([1]; 150 mg/kg, 10 days) was 5 # of mice. The “Solid tumors at 60 days” value ([1]; 150 mg/kg, 10 days) was 3 # of mice, the “Mice in which disappearance of solid tumors was observed” value ([1]; at the higher dosages) was “two” and the “Acute toxicity reactions of the mice” value ([1]; compared with the D-isomer) was “distinctly smaller than with the D-isomer”. The “Weight Change after 10 days” value ([1]; 75 mg/kg) was 3.2 g, the “Weight Change after 10 days” value ([1]; 100 mg/kg) was 1.9 g and the “Weight Change after 10 days” value ([1]; 125 mg/kg) was 0.8 g. The “Weight Change after 10 days” value ([1]; 150 mg/kg) was -0.2 g.
In the case of galactosylceramide [GalCer], the “Stimulation of EATC growth” value ([3]; Experiment 7, 100 mg/kg) is reported as “no stimulation of EATC growth”, the “Volume of packed cells” value [3] is reported as 2.29 ± 1.21 ml/mouse and the “Volume of packed cells, % of controls” value [3] is reported as 84 % of controls.
In the case of glucosylceramide [GlcCer], the “Increase in the number of cancer cells” value [4] is given as “greater than 50%”, the “Packed, centrifuged ascites cells (mean value per mouse)” value ([3]; EATC mice, eight daily injections from day 1, killed 1 day after the last, GlcCer 100 mg/kg, saline controls 3.07 ml) is given as 4.68 mL and the “Increase of packed cells over saline-injected controls” value ([3]; EATC mice, eight daily injections, GlcCer 100 mg/kg, p less than 0.05) is given as 52%. For the same compound, the “Volume of packed cells” value [3] was 4.13 ± 0.63 ml/mouse and the “Volume of packed cells, % of controls” value [3] was 152 % of controls.

Reference: patent US5041441A, “Method of chemotherapy using 1-phenyl-2-decanoylamino-3-morpholino-1-propanol” (The Regents of the University of Michigan, priority 1988, dated 1991)
